This note sets out measurements from patent publication US4175125A, “Method for treating methicillin resistant staphylococcus aureus” (Eli Lilly and Company, priority 1978, dated 1979).

≈ marks a conversion by molar mass, not a printed value. Where a name gives a salt, the structure may show the parent alone. Read-outs that look alike come from different tables or passages of the source.

In this assay the test system is methicillin-resistant Staphylococcus aureus. Nature of the assay: Gradient plate test (MIC) against methicillin-resistant Staphylococcus aureus. Type of assay: cell-based. The conditions noted are these: for MIC: Staphylococcus aureus. The protocol: The method used is essentially that described by Bryson and Szybalski in 1952 (Science 116:45-46). The inoculum treatment method used for penicillin resistant Staphylococci was reported by Godzeski et al in Antimicrobial Agents and Chemotherapy, May, 1969, pp. 547-554.
A standard Falcon square plastic petri dish is used. A layer of agar (10 ml.) is poured into one of the square dishes, the dish tipped 5 mm. off the horizontal, and the agar layer allowed to harden in this position. This bottom layer of agar contains the antibiotic, the serum, and/or other material to be tested. The medium is Difco Penassay Agar containing 2 percent agar. We routinely used 4 ml. of human or horse serum for "serum-inactivation" testing. […] Therefore, serum is routinely added only to the bottom layer.
After the bottom, slanted layer of agar medium has hardened, the plate is placed flat and another 10 ml. of medium added and allowed to harden.
The inoculum of resistant Staphylococci, as described, is prepared by diluting the water suspension 1/50 in 0.25 percent agar in sterile water or saline. For Gram negative organisms, an overnight broth culture is diluted 1/50 in the 0.25 percent agar-water. This dilution is thoroughly shaken to evenly suspend the bacteria. To streak the plate, we use a 1 ml. pipet containing an aliquot of the final […] agar dilution. After a little practice, a smooth even stroke of inoculum can be laid down very rapidly. The trick is in the smoothness of the streak--it must be accomplished uniformly and quickly.
After 24 hours incubation at 35°-37° C. the plates are read by simply measuring the length of bacterial growth as a percentage of the entire streak distance which is then converted to the percent of antibiotic concentration in the plate.
Average values of duplicate measurements are calculated and the M.I.C.'s reported are average of 2 streaks on the plate and from 2 to 3 duplicate plates. Eight streaks can be easily placed on each plate. If sharp end points are not obtained, the middle concentration between the beginning of inhibition of the streak to the end of growth is measured. The concentration of the antibiotic under examination is varied from plate to plate in a series as follows: […]
This method of screening penicillins and cephalosporins is quite satisfactory. Control plates containing penicillin and staphcillin or prostaphlin, or other control antibiotic, are used daily for the resistant staphylococcal activity screen. The gradient plate method has shown differences between antibiotics that were not apparent by any other methods of screening. […] We believe that the gradient plate screen is more sensitive to small differences between related antibiotics than other methods and pictures of the plates can provide a permanent record. The method also lends itself readily to modification of specific purposes--e.g., cross gradients.
The compounds listed below are examples of compounds useful in the method of this invention. After the compound name there is given in parentheses, where tested, the minimum inhibitory concentrations (MIC) in micrograms per milliliter (μg/ml) for the compound in the above described gradient plate procedure test against methicillin-resistant Staphylococcus aureus, (in the absence of blood serum/in the presence of 20 percent blood serum).
and pharmaceutically acceptable salts thereof. The abbreviation "s.z." means skip zones.

[1] abbreviates: in the absence of blood serum, read-out: minimum inhibitory concentration (MIC).
The mark [2] stands for this setting: in the presence of 20 percent blood serum, read-out: minimum inhibitory concentration (MIC).
[3] abbreviates: in the presence of 20 percent blood serum.

In the case of `CC(=O)OCC1=C(C(=O)O)N2C(=O)C(NC(=O)CSc3cc(F)c(Cl)cc3Cl)C2SC1` (centres unmarked) [Example 4, 7(2,4-Dichloro-5-fluoro-phenylthioacetamido)cephalosporanic acid], the MIC is 3 µg/mL (≈ 5.89 µM) under setting [1] and over 20 µg/mL under setting [2].
With `Cn1nnnc1SCC1=C(C(=O)O)N2C(=O)C(NC(=O)CSc3cc(F)c(Cl)cc3Cl)C2SC1` (centres unmarked) [3-(1'-methyl-1'H-tetrazol-5'-ylthiomethyl)-7-[2'-[2",4"-dichloro-5"-fluorophenylthio)acetamido]-3-cephem-4-carboxylic acid, dicyclohexylamine salt], the MIC is, setting by setting: under setting [1], 1.9 µg/mL; under setting [2], over 20 µg/mL.
In the same order, the values of `Cc1nnc(SCC2=C(C(=O)O)N3C(=O)C(NC(=O)CSc4cc(Cl)cc(Cl)c4)C3SC2)s1` (centres unmarked) [3-(5'-methyl-1',3',4'-thiadiazol-2'-ylthiomethyl)-7-[2'-(3",5"-dichlorophenylthio)acetamido]-3-cephem-4-carboxylic acid, sodium salt] are 4.5 µg/mL and over 20 µg/mL.
Take `Cn1nnnc1SCC1=C(C(=O)O)N2C(=O)C(NC(=O)CSc3ccc(Cl)c(Cl)c3)[C@H]2SC1` (some centres unmarked) [Example 5, 7-[2-(3,4-dichlorophenylthio)acetamido]-3-(1-methyltetrazol-5-yl-thiomethyl)-3-cephem-4-carboxylic acid]: the MIC is 2.4 µg/mL (≈ 4.38 µM) under setting [1] and over 20 µg/mL under setting [2].
In the same order, the values of `CC(=O)OCC1=C(C(=O)O)N2C(=O)C(NC(=O)CSc3cccc(F)c3)C2SC1` (centres unmarked) [7-[2'-(3"-fluorophenylthio)acetamido]cephalosporanic acid] are 10.6 µg/mL (≈ 24.1 µM) and 9.3 µg/mL.
For `CC(=O)OCC1=C(C(=O)O)N2C(=O)C(NC(=O)CSc3cccc(Cl)c3)C2SC1` (centres unmarked) [7-m-Chlorophenylthioacetamidocephalosporanic acid, potassium salt] the same measures were 2 µg/mL and 5.2 µg/mL.
In the same order, the values of `Cc1nnc(SCC2=C(C(=O)O)N3C(=O)C(NC(=O)CSc4cc(Cl)ccc4Cl)C3SC2)s1` (centres unmarked) [3-(5'-methyl-1',3',4'-thiadiazol-2'-ylthiomethyl)-7-[2'-(2",5"-dichlorophenylthio)acetamido]-3-cephem-4-carboxylic acid, sodium salt] are 1.8 µg/mL and over 1 µg/mL.
On to `O=C(CSc1cc(Cl)ccc1Cl)NC1C(=O)N2C(C(=O)O)=C(CSc3nn[nH]n3)CSC12` (centres unmarked) [3-(1'H-tetrazol-5'-ylthiomethyl)-7-[2'-(2",5"-dichlorophenylthio)acetamido]-3-cephem-4-carboxylic acid], for which the MIC is 6.8 µg/mL (≈ 12.7 µM) under setting [1] and over 1 µg/mL under setting [2].
For the compound `COc1ccc(-c2nnc(SCC3=C(C(=O)O)N4C(=O)C(NC(=O)CSc5cc(Cl)ccc5Cl)C4SC3)o2)cc1` (centres unmarked) [3-[5'-(p-methoxyphenyl)-1',3',4'-oxadiazol-5'-ylthiomethyl]-7-[2'-(2",5"-dichlorophenylthio)acetamido]-3-cephem-4-carboxylic acid, sodium salt], the MIC under setting [1] came out at 4.4 µg/mL.
With `O=C(CSc1cc(Cl)ccc1Cl)NC1C(=O)N2C(C(=O)O)=C(CSc3nnc(-c4ccccc4)o3)CSC12` (centres unmarked) [3-[5'-phenyl-1',3',4'-oxadiazol-2'-ylthiomethyl]-7-[2'-(2"-5"-dichlorophenylthio)acetamido]-3-cephem-4-carboxylic acid, dicyclohexylamine salt], the MIC is, setting by setting: under setting [1], 0.8 µg/mL; under setting [2], over 1 µg/mL.
Consider `Cn1nnnc1SCC1=C(C(=O)O)N2C(=O)C(NC(=O)CSc3cc(Cl)cc(Cl)c3)C2SC1` (centres unmarked) [3-[1'-methyl-1'H-tetrazol-5'-ylthiomethyl]-7-[2'-(3",5"-dichlorophenylthio)acetamido]-3-cephem-4-carboxylic acid, dicyclohexylamine salt], for which, under setting [1], the MIC is 2.2 µg/mL. In addition, under setting [3], the “minimum inhibitory concentration (MIC)” value was “skip zones”.
Consider `Cn1nnnc1SCC1=C(C(=O)O)N2C(=O)C(NC(=O)CSc3cc(Cl)ccc3Cl)C2SC1` (centres unmarked) [3-(1'-methyl-1'H-tetrazol-5'-ylthiomethyl)-7-[2'-(2",5"-dichlorophenylthio)acetamido]-3-cephem-4-carboxylic acid, dicyclohexylamine salt], for which the MIC under setting [1] came to 2.3 µg/mL. Besides, under setting [3], the “minimum inhibitory concentration (MIC)” value was “skip zones”.
As for `CSCC1=C(C(=O)[O-])N2C(=O)C(NC(=O)CSc3cc(Cl)ccc3Cl)[C@H]2SC1.[Na+]` (some centres unmarked) [3-methylthiomethyl-7-[2'-(2",5"-dichlorophenylthio)acetamido]-3-cephem-4-carboxylic acid, sodium salt], the MIC (read-out: minimum inhibitory concentration (MIC), in the absence of blood serum) was determined as 12 µg/mL and the MIC (read-out: minimum inhibitory concentration (MIC), in the presence of 20 percent blood serum) amounted to 14.4 µg/mL.
In the case of `O=C(CSc1cc(Cl)ccc1Cl)NC1C(=O)N2C(C(=O)O)=C(CSc3nnc(-c4ccc([N+](=O)[O-])cc4)o3)CSC12` (centres unmarked) [3-[5'-(p-nitrophenyl)-1',3',4'-oxadiazol-2'-ylthiomethyl]-7-[2'-(2",5"-dichlorophenylthio)actamido]-3-cephem-4-carboxylic acid, sodium salt], the MIC is, setting by setting: under setting [1], 3.9 µg/mL; under setting [2], over 20 µg/mL.
For `CNC(=O)OCC1=C(C(=O)O)N2C(=O)C(NC(=O)CSc3cc(Cl)ccc3Cl)C2SC1` (centres unmarked) [Example 7, 7(2,5-dichlorophenylmercaptoacetamido)-3-(N-methylcarbamoyloxymethyl)-Δ^3-cephalosphoranic acid] the same measures were 5.5 µg/mL (≈ 10.9 µM) and 18.2 µg/mL.
In the same order, the values of `NC(=O)OCC1=C(C(=O)O)N2C(=O)C(NC(=O)CSc3cc(Cl)ccc3Cl)[C@H]2SC1` (some centres unmarked) [3-carbamyloxymethyl-7-[2'-(2",5"-dichlorophenylthio)acetamido]-3-cephem-4-carboxylic acid] are 4.1 µg/mL (≈ 8.33 µM) and 1.7 µg/mL.
For the compound `Cc1nnc(SCC2=C(C(=O)O)N3C(=O)C(NC(=O)CSc4cc(F)c(Cl)cc4Cl)C3SC2)s1` (centres unmarked) [3-(5'-methyl-1',3',4'-thiadiazol-2'-ylthiomethyl)-7-[2'-(2",4"-dichloro-5"- fluorophenylthio)acetamido]-3-cephem-4-carboxylic acid, sodium salt], the MIC is 2.3 µg/mL under setting [1] and over 20 µg/mL under setting [2].
For `Cc1nnc(SCC2=C(C(=O)O)N3C(=O)C(NC(=O)CSc4ccc(Cl)c(Cl)c4)C3SC2)s1` (centres unmarked) [3-(5'-methyl-1',3',4'-thiadiazol-2'-ylthiomethyl)-7-[2'-(3",4"-dichlorophenylthio)acetamido]-3-cephem-4-carboxylic acid, dicyclohexylamine salt] the same measures were 1.2 µg/mL and over 20 µg/mL.
